Measured values as given in patent US20100197789A1, “ANTI-OBESITY AGENT AND USE THEREOF” (National University Corporation Nagoya University, priority 2006, published 2010).

Columns and labels:
Format in all cases: in vivo, mouse
[1] = tested on: db/^+m mice; experiment: Food intake amount and body weight, 5 week-continuous oral administration, non-obese db/+m mice; details: SKF97541 10×10^−6 M, 3-APPA 100×10^−6 M in drinking water
Method: 5 week-old male C57BL/KsJ-db/^+m mice (db/^+m mice: body weight 19 to 23 g, Japan SLC, Inc.) were purchased and individually fed in tip cages. To the db/^+m mice, normal pellet diet (CE-2) was administered under free water intake and free food intake. A body weight and a food intake amount over 24 hours were measured every day from the start of feeding. On day 3 after the start of feeding, blood was taken from an orbit after 6 hour-fasting and a blood glucose level and a blood insulin concentration were measured. The db/^+m mice were divided into two groups (10 mice per each group) so that a body weight, a 24 hour-food intake amount, a blood glucose level, and a blood insulin concentration were equal, and defined to be a control group and a baclofen treated group. After division into the groups, from day 5 after the start of feeding, (±)-baclofen was dissolved in drinking water and 5 week-continuous oral administration was started in the baclofen treated group. (±)-baclofen was dissolved in drinking water at a concentration of 2.7 mg/dl used in the high concentration treated group in the experiment of db/db mice. A food intake amount and a body weight of the db/^+m mice were measured over time, and a rectal temperature was measured 5 weeks after the start of the administration. Blood was taken after the 5-week administration of (±)-baclofen, and the db/^+m mice were sacrificed by cervical luxation.
5 week-old male C57BL/KsJ-db/db mice (db/db mice: body weight 19 to 25 g, Japan SLC, Inc.) were purchased and individually fed in tip cages. Normal pellet diet (CE-2) was administered to the db/db mice under free water intake and free food intake. A body weight and a food intake amount over 24 hours were measured every day from the start of feeding. On day 3 after the start of feeding, blood was taken from an orbit after 6 hour-fasting and a blood glucose level and a blood insulin concentration were measured. The db/db mice were divided into three groups (10 mice per each group) so that a body weight, a 24 hour-food intake amount, a blood glucose level, and a blood insulin concentration were equal and defined to be a control group, an SKF97541 treated group and a 3-APPA treated group. SKF97541 and 3-APPA were dissolved in drinking water at respective concentrations of 10×10^−6 M and 100×10^−6 M, and continuously orally administered for 5 weeks, and a food intake amount and a body weight were measured over time during the administration period. SKF97541 (10×10^−6 M) or 3-APPA (100×10^−6M) was dissolved in drinking water and orally administered also to db/^+m mice, and a food intake amount and a body weight were measured over time in the same manner.

[2] = tested on: DIO mice; experiment: Food intake amount and body weight, 5 week-continuous oral administration, diet-induced obese (DIO) mice; details: (±)-baclofen 5 mg/kg/day, SKF97541 0.3 mg/kg/day, 3-APPA 5 mg/kg/day; for body weight increase / food intake amount: DIO mice (high fat diet), oral in drinking water 5 weeks; for time after start of administration from which body weight increase suppression was significant / time after start of administration from which food intake suppression was significant: DIO mice, continued until 5 weeks
Method: (§1) 5 week-old male C57BL/6N mice (body weight 17 to 20 g, CLEA Japan, Inc.) were purchased and individually fed in tip cages. To the mice, normal pellet diet (CE-2) was administered under free water intake and free food intake. A body weight and a food intake amount over 24 hours were measured every day from the start of feeding. On day 3 after the start of feeding, blood was taken from an orbit after 6 hour-fasting and a blood glucose level and a blood insulin concentration were measured. The mice were divided into a control group and a baclofen treated group (10 mice per each group) so that a body weight, a 24 hour-food intake amount, a blood glucose level, and a blood insulin concentration were equal, and diet induced-obesity (DIO) was started to be induced by administration of high fat diet (High Fat Diet 32, energy fat ratio 60%, CLEA Japan, Inc.) (DIO mice). At the same time as the start of administering the high fat diet, (±)-baclofen was dissolved in drinking water and 5 week-continuous oral administration was started in a dosage of 5 mg per 1 kg of a body weight in 1 day (5 mg/kg/day). A food intake amount and a body weight were measured over time during the 5 week-administration period. (±)-baclofen (5 mg/kg/day) was orally administered also to C57BL/6N mice (lean mice) that are non-obese mice to which normal diet was administered in the same manner as described above, and a food intake amount and a body weight were measured over time.
(§2) 5 week-old male C57BL/6N mice (body weight 17 to 20 g, CLEA Japan, Inc.) were purchased and individually fed in tip cages. Normal pellet diet (CE-2) was administered to the mice under free water intake and free food intake. A body weight and a food intake amount over 24 hours were measured every day from the start of feeding. On day 3 after the start of feeding, blood was taken from an orbit after 6 hour-fasting and a blood glucose level and a blood insulin concentration were measured. The mice were divided into a control group, an SKF97541 treated group and a 3-APPA treated group (10 mice per each group) so that a body weight, a 24 hour-food intake amount, a blood glucose level, and a blood insulin concentration were equal, and diet induced-obesity (DIO) was started to be induced by administration of high fat diet (High Fat Diet 32, energy fat ratio 60%, CLEA Japan, Inc.) (DIO mice). At the same time as the start of administering the high fat diet, SKF97541 (0.3 mg/kg/day) or 3-APPA (5 mg/kg/day) was dissolved in drinking water and 5 week-continuous oral administration was started. A food intake amount and a body weight were measured over time during the 5 week-administration period. SKF97541 (0.3 mg/kg/day) or 3-APPA (5 mg/kg/day) was orally administered also to C57BL/6N mice (lean mice) to which normal diet was administered in the same manner as described above, and a food intake amount and a body weight were measured over time.

[3] = tested on: lean mice; experiment: Food intake amount and body weight, 5 week-continuous oral administration, non-obese lean mice; details: lean mice (normal diet); oral 5 weeks; (±)-baclofen 5 mg/kg/day, SKF97541 0.3 mg/kg/day, 3-APPA 5 mg/kg/day
Method: as §1, §2

[4] = tested on: DIO mice; experiment: Fasting blood glucose, HbA1c, blood insulin, plasma leptin and adiponectin after 5-week administration, DIO mice; details: (±)-baclofen 5, SKF97541 0.3, 3-APPA 5 mg/kg/day, vs control; for fasting blood glucose level / fasting blood insulin concentration: 6 hour-fasting after 5 weeks oral; for HbA1c value: after 5 weeks oral
Method: The blood glucose level was measured by a glucose analyzer Antisense (HORIBA, Ltd.) promptly after taking blood from an orbit. HbA1c was measured by a glycohemoglobin analyzer HLC-723 GHbV (manufactured by TOSOH Corporation) after preserving blood at −80° C.
After taking blood from an orbit by using a hematocrit tube coated with heparin, blood was centrifuged at 3500 rpm at 4° C. for 15 minutes, and plasma was preserved at −80° C. The plasma concentrations of insulin, leptin and adiponectin were measured by the ELISA method (levis insulin kit (mouse): Shibayagi Co., Ltd., Morinaga Leptin assay kit: Morinaga Institute of Biological Science, Inc., Mouse/rat adiponectin ELISA kit: OTSUKA Pharmaceutical Co., Ltd.).
(±)-baclofen (5 mg/kg/day), SKF97541 (0.3 mg/kg/day) or 3-APPA (5 mg/kg/day) was orally administered to DIO mice for 5 weeks according to the above described method, and then blood was taken from an orbit after 6 hour-fasting and a blood glucose level, an HbA1c value and a blood insulin concentration were measured.
(±)-baclofen (5 mg/kg/day) was orally administered to DIO mice for 5 weeks according to the above described method, and then, blood was taken from an orbit after 6 hour-fasting, and a plasma leptin concentration and a plasma adiponectin concentration were measured. The DIO mice were sacrificed by cervical luxation after the end of the 5-week administration, and then epididymal white adipose tissues and subcutaneous white adipose tissues were surgically removed, and after measuring the weights, they were fixed in 4% formaldehyde. The epididymal white adipose tissues were cut out to prepare a section with a thickness of 8 μm and subjected to Hematoxylin-Eosin stain (H-E stain) and a form (size) of a fat cell was examined by using an image analysis system, Neurolucida (MicroBrightField Japan, Inc.).

[5] = tested on: db/db mice; experiment: Food intake amount and body weight, 5 week-continuous oral administration in drinking water, db/db mice; details: SKF97541 10×10^−6 M, 3-APPA 100×10^−6 M in drinking water; for time after start of administration from which body weight increase suppression was significant / time after start of administration from which cumulative food intake suppression was significant: continued until end of experiment; for body weight increase / cumulative food intake amount: oral, 5 weeks

SMILES	body weight [1]	food intake amount [1]	body weight increase [2]	food intake amount [2]	time after start of administration from which body weight increase suppression was significant [2] [week]	time after start of administration from which food intake suppression was significant [2] [week]	body weight [3]	food intake amount [3]	fasting blood glucose level [4]	fasting blood insulin concentration [4]	HbA1c value [4]	time after start of administration from which body weight increase suppression was significant [5] [week]	time after start of administration from which cumulative food intake suppression was significant [5] [weeks]	body weight increase [5]	cumulative food intake amount [5]
CP(=O)(O)CCCN [SKF97541, 3-aminopropyl-(methyl)phosphinic acid]	did not give significant effects	did not give significant effects	significantly suppressed	significantly suppressed	1	1	did not give significant effects	did not give significant effects	significant decreases	significant decreases	significant decreases	1	2	significantly suppressed	significantly suppressed
NCCCP(=O)(O)O [3-APPA, 3-aminopropylphosphonic acid]	did not give significant effects	did not give significant effects	significantly suppressed	significantly suppressed	1	1	did not give significant effects	did not give significant effects	significant decreases	significant decreases	significant decreases	1	1	significantly suppressed	significantly suppressed
